# Laboratory results: patent US5912259A, “Method for treating and preventing neurodegenerative disorders by administering a thiazolidinone” (Warner-Lambert Company, priority 1998, dated 1999)
# Assay: General pharmacokinetic and tolerability properties
smiles,measurement,value
"CC(C)(C)c1cc(/C=C2\SC(N)=NC2=O)cc(C(C)(C)C)c1O [CI-1004, (Z)-5-[[3,5-bis(1,1-dimethylethyl)-4-hydroxyphenyl]methylene]-2-imino-4-thiazolidinone methanesulfonate]",GI tract and kidney tolerability,relatively benign to the GI tract and kidneys
same,blood-brain barrier passage,readily crosses the blood-brain barrier
same,half-life,relatively long half-life
